Like-named read-outs stand apart in the source and are kept apart here. Marks after values point to notes of the source that are not given here.
How the values were obtained:
[1] = tested on: adjuvant induced arthritis (AIA) rat model
[2] = tested on: collagen induced arthritis (CIA) in mice; details: for Average clinical score / Incidence rate: dosing from day 28
[3] = day 13, 0.3 mg/kg p.o. qd from day 13
[4] = day 15, 0.3 mg/kg p.o. qd from day 13
[5] = day 17, 0.3 mg/kg p.o. qd from day 13
[6] = day 20, 0.3 mg/kg p.o. qd from day 13
[7] = day 22, 0.3 mg/kg p.o. qd from day 13
[8] = day 24, 0.3 mg/kg p.o. qd from day 13
[9] = day 27, 0.3 mg/kg p.o. qd from day 13
[10] = day 27, 0.3 mg/kg p.o. qd from day 13, listed as Dexamethasone acetate
[11] = right hind foot, day 27, 0.3 mg/kg p.o. qd
[12] = day 31, 0.3 mg/kg p.o. qd, listed as Dex.
[13] = day 15, 30 mg/kg p.o. bid from day 13
[14] = day 17, 30 mg/kg p.o. bid from day 13
[15] = day 20, 30 mg/kg p.o. bid from day 13
[16] = day 22, 30 mg/kg p.o. bid from day 13
[17] = day 24, 30 mg/kg p.o. bid from day 13

## C[C@@H]1C[C@H]2[C@@H]3CCC4=CC(=O)C=C[C@]4(C)[C@@]3(F)[C@@H](O)C[C@]2(C)[C@@]1(O)C(=O)CO [Dexamethasone]
[1]; 0.3 mg/kg p.o. qd
  Inhibition rate (total pathological score vs solvent control): 72.5%
[1]; [3]
  Clinical score (mean): 6.0
  Foot volume (mean): 1.9 mL
[1]; [4]
  Clinical score (mean): 5.3*
  Foot volume (mean): 1.7**** mL
[1]; [5]
  Clinical score (mean): 4.1****
  Foot volume (mean): 1.4**** mL
[1]; [6]
  Clinical score (mean): 3.4****
  Foot volume (mean): 1.3**** mL
[1]; [7]
  Clinical score (mean): 3.1****
  Foot volume (mean): 1.3**** mL
[1]; [8]
  Clinical score (mean): 3.1****
  Foot volume (mean): 1.2**** mL
[1]; [9]
  Clinical score (mean): 2.7
  Foot volume (mean): 1.21 mL
[1]; [10]
  Clinical score (mean): 2.9****
  Foot volume (mean): 1.2**** mL
[1]; [11]
  Pathological score: Bone resorption: 0.6 ± 0.2
  Pathological score: Cartilage injury: 0.6 ± 0.2
  Pathological score: Inflammatory cell infiltration: 1.8 ± 0.2
  Pathological score: Pannus formation: 1.4 ± 0.3
  Pathological score: Total score: 4.4±0.8
[1]; right hind foot, day 27, 0.3 mg/kg p.o. qd, listed as Dexamethasone acetate
  Pathological score: Total score: 4.4 ± 0.8
[2]; 0.3 mg/kg p.o. qd 14 days
  Inhibition rate (clinical score AUC vs control group): 97.3%
[2]; 0.3 mg/kg p.o. qd 14 days, listed as Dex.
  Inhibition rate (clinical score AUC vs control group): 97.3%
[2]; administration period, 0.3 mg/kg p.o. qd 14 days
  AUC ± SEM (area under incidence/clinical score curve): 1.38 ± 0.81
[2]; day 21, 0.3 mg/kg p.o. qd
  Average clinical score: 0.00 ± 0.00
  Incidence rate: 0%
[2]; day 24, 0.3 mg/kg p.o. qd
  Average clinical score: 0.00 ± 0.00
  Incidence rate: 0%
[2]; day 27, 0.3 mg/kg p.o. qd
  Average clinical score: about 0.3
  Incidence rate: 25%
[2]; day 27, 0.3 mg/kg p.o. qd, listed as Dex.
  Average clinical score: 0.25 ± 0.16
[2]; day 28, 0.3 mg/kg p.o. qd
  Average clinical score: 0.50 ± 0.27
  Incidence rate: 38%
[2]; day 29, 0.3 mg/kg p.o. qd
  Average clinical score: 0.25 ± 0.16
  Incidence rate: 25%
[2]; day 31, 0.3 mg/kg p.o. qd
  Average clinical score: 0
  Incidence rate: 0%
[2]; [12]
  Average clinical score: 0.00 ± 0.00
  Incidence rate: 0%
[2]; day 34, 0.3 mg/kg p.o. qd
  Average clinical score: 0.00 ± 0.00
  Incidence rate: 0%
[2]; day 36, 0.3 mg/kg p.o. qd
  Average clinical score: 0.00 ± 0.00
  Incidence rate: 0%
[2]; day 38, 0.3 mg/kg p.o. qd
  Average clinical score: 0.00 ± 0.00
  Incidence rate: 0%
[2]; day 41, 0.3 mg/kg p.o. qd
  Average clinical score: 0.00 ± 0.00
  Incidence rate: 0%

## O=C(Nc1nc2cccc(-c3ccc(CN4CCS(=O)(=O)CC4)cc3)n2n1)C1CC1 [Filgotinib]
[1]; [13]
  Clinical score (mean): 6.6
  Foot volume (mean): 2.2 mL
[1]; [14]
  Clinical score (mean): 6.3
  Foot volume (mean): 2.0** mL
[1]; [15]
  Clinical score (mean): 5.8**
  Foot volume (mean): 1.9**** mL
[1]; [16]
  Clinical score (mean): 5.5***
  Foot volume (mean): 2.0**** mL
[1]; [17]
  Clinical score (mean): 5.4****
  Foot volume (mean): 2.0**** mL
[1]; day 27, 30 mg/kg p.o. bid from day 13
  Foot volume (mean): 1.9**** mL
[1]; right hind foot, day 27, 30 mg/kg p.o. bid
  Pathological score: Bone resorption: 3.6 ± 0.2
[2]; day 21, 15 mg/kg p.o. bid
  Incidence rate: 0%
[2]; day 24, 15 mg/kg p.o. bid
  Incidence rate: 0%
[2]; day 27, 15 mg/kg p.o. bid
  Incidence rate: 25%
[2]; day 29, 15 mg/kg p.o. bid
  Incidence rate: 50%
[2]; day 31, 15 mg/kg p.o. bid
  Incidence rate: 75%
[2]; day 34, 15 mg/kg p.o. bid
  Incidence rate: 88%
[2]; day 36, 15 mg/kg p.o. bid
  Incidence rate: 88%
[2]; day 38, 15 mg/kg p.o. bid
  Incidence rate: 88%
[2]; day 41, 15 mg/kg p.o. bid
  Incidence rate: 100%

Source: patent US12486266B2, “Crystalline form of JAK inhibitor and application thereof” (Zhuhai United Laboratories CO., LTD., priority 2020, dated 2025)
